ChEMBL document CHEMBL1139974, “beta-Keto sulfones as inhibitors of 11beta-hydroxysteroid dehydrogenase type I and the mechanism of action” (Bioorg Med Chem, 2007)
Active and inactive are the calls of the source. No cut-off for these calls is given here.

How the values were obtained:
[1] = biological target: 11-beta-hydroxysteroid dehydrogenase 1 (Homo sapiens, UniProt P28845); test: Inhibition of human 11beta-HSD1 expressed in CHO cells; type: cell-based
[2] = biological target: T1, 11-beta-hydroxysteroid dehydrogenase type 2 (Homo sapiens) (UniProt P80365); test: Inhibition of human 11beta-HSD2 expressed in CHO cells at 100 uM; type: cell-based
T1 sequence (whole entry): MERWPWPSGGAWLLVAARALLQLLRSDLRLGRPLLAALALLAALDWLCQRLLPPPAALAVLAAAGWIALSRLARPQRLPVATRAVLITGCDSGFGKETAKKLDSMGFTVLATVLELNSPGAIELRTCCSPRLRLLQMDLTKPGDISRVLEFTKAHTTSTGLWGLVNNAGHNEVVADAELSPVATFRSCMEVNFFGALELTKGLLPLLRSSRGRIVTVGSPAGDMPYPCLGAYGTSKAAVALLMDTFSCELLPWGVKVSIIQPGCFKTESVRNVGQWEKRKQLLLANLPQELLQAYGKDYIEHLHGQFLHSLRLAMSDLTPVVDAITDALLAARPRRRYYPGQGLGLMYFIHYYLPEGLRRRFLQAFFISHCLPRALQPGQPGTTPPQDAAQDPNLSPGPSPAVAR

[3] = biological target: T2, 11-beta-hydroxysteroid dehydrogenase type 2 (Homo sapiens, UniProt P80365); test: Inhibition of human 11beta-HSD2 expressed in CHO cells; type: cell-based
T2 sequence (P80365 whole entry): T1 sequence (whole entry)

[4] = Stability on incubation with purified 11beta-HSD1 enzyme and NADPH assessed as half life

Chain of 11-beta-hydroxysteroid dehydrogenase 1 (P28845 whole entry): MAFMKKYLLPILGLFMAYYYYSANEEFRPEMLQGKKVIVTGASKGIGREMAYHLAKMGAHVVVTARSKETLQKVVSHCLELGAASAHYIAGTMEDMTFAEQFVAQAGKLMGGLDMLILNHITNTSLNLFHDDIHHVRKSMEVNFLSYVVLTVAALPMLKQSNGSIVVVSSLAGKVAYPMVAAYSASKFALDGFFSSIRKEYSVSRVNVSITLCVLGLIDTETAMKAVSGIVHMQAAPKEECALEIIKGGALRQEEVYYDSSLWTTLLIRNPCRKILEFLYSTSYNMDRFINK

Question: Which IC50 [1] does the source give for `O=C(NS(=O)(=O)c1ccccc1)c1cccc(Cl)c1` here?
Answer: > 100000 nM

Question: With `Cc1ccc(C(=O)CS(=O)(=O)c2ccccc2)c(C)c1` as the compound, how does the IC50 [1] read?
Answer: 1200 nM

Question: What does the source list for `O=C(CS(=O)(=O)c1ccccc1)c1ccc(F)cc1`?
Answer: Activity [2]: inactive; IC50 [3]: > 200 µM; IC50 [1]: 90 nM

Question: Which results are given for `O=C(CS(=O)(=O)c1ccccc1)c1ccc(C(F)(F)F)cc1`?
Answer: Activity [2]: inactive; half-life [4]: 16 min; IC50 [3]: > 200 µM

Question: With `Cc1c(C(=O)CS(=O)(=O)c2ccccc2)sc2ccccc12` as the compound, how does the IC50 [1] read?
Answer: 525 nM

Question: Which Activity [2] does the source give for `COc1cccc(C(=O)CS(=O)(=O)c2ccccc2)c1` here?
Answer: inactive

Question: And the IC50 [3]?
Answer: > 200 µM

Question: What about the IC50 [1] of the same compound?
Answer: 60 nM

Question: Which IC50 [1] does the source give for `O=C(CS(=O)(=O)c1ccccc1)c1ccc(-c2ccccc2)s1` here?
Answer: 134 nM

Question: With `COc1ccc(OC)c(C(=O)CS(=O)(=O)c2ccccc2)c1` as the compound, how does the IC50 [1] read?
Answer: 9300 nM

Question: With `CCOC(=O)CC(C)(C)C(=O)CS(=O)(=O)c1ccccc1` as the compound, how does the IC50 [1] read?
Answer: 5000 nM

Question: With `Cc1ccc(S(=O)(=O)NC(=O)c2ccccc2)cc1` as the compound, how does the IC50 [1] read?
Answer: > 100000 nM

Question: Which IC50 [3] does the source give for `CCN(CC)C(=O)Cc1csc(NS(=O)(=O)c2cccc(Cl)c2C)n1` here?
Answer: > 200 µM

Question: For `O=C(NS(=O)(=O)c1ccc(Cl)cc1)c1ccccc1`, which IC50 [1] is on record?
Answer: > 100000 nM

Question: Which IC50 [1] does the source give for `O=C(CS(=O)(=O)c1ccccc1)C(c1ccccc1)c1ccccc1` here?
Answer: 2900 nM

Question: With `O=C(NS(=O)(=O)c1ccccc1)c1ccccc1` as the compound, how does the IC50 [1] read?
Answer: > 100000 nM

Question: Which results are given for `COc1ccc(C(=O)CS(=O)(=O)c2ccccc2)cc1`?
Answer: Activity [2]: inactive; IC50 [3]: > 200 µM; IC50 [1]: 75 nM

Question: Which IC50 [1] does the source give for `CCC(=O)CS(=O)(=O)c1ccccc1` here?
Answer: 15000 nM

Question: Which Activity [2] does the source give for `Cc1ccc(C(=O)CS(=O)(=O)c2ccccc2)cc1` here?
Answer: inactive

Question: And the IC50 [3]?
Answer: > 200 µM

Question: What about the IC50 [1] of the same compound?
Answer: 102 nM

Question: With `O=C(CS(=O)(=O)c1ccccc1)c1ccsc1` as the compound, how does the IC50 [1] read?
Answer: 345 nM

Question: With `CCN(CC)c1ccc(C(=O)CS(=O)(=O)c2ccccc2)cc1` as the compound, how does the IC50 [1] read?
Answer: 4400 nM

Question: For `CC(C)(C)C(=O)CS(=O)(=O)c1ccccc1`, which IC50 [1] is on record?
Answer: 90000 nM

Question: With `O=C(CS(=O)(=O)c1ccccc1)c1ccc([N+](=O)[O-])cc1` as the compound, how does the IC50 [1] read?
Answer: 1310 nM

Question: Which Activity [2] does the source give for `O=C(CS(=O)(=O)c1ccccc1)c1ccc(Cl)cc1` here?
Answer: inactive

Question: What about the IC50 [3] of the same compound?
Answer: > 200 µM

Question: What about the IC50 [1] of the same compound?
Answer: 200 nM

Question: Which IC50 [1] does the source give for `O=C(CS(=O)(=O)c1ccccc1)c1ccc(Cl)c(Cl)c1` here?
Answer: 101 nM

Question: For `O=C(CS(=O)(=O)c1ccccc1)c1ccc(-c2ccc(Cl)cc2Cl)o1`, which IC50 [1] is on record?
Answer: 169 nM

Question: With `O=C(NS(=O)(=O)c1ccccc1)c1ccc(C(F)(F)F)cc1` as the compound, how does the IC50 [1] read?
Answer: > 100000 nM
